Experiment [1] has as its target T1, human GPR119 (Homo sapiens, UniProt Q8TDV5).
T1 sequence (Q8TDV5 1-335): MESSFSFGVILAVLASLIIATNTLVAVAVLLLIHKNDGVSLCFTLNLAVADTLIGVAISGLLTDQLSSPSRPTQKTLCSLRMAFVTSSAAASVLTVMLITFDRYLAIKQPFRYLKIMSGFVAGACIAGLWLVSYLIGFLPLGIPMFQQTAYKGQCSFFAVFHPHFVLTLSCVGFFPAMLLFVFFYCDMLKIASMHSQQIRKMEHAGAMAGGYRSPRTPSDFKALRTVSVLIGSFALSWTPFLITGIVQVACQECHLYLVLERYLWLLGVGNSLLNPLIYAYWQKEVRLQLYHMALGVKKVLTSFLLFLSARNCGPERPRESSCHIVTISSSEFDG
In words: β-Arrestin PathHunter assay (U2OS hGPR119 β-arrestin cells). Particulars: for pEC50: U2OS hGPR119 β-arrestin cells, 90 min, each line a separate determination, read-out: Human B-arrestin Functional EC50; for Emax: U2OS, read-out: Intrinsic Activity (Human B-arrestin). The format is cell-based. The method in brief:
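Cells carry ProLink-tagged GPR119 and EA-fused β-arrestin; 5000 cells/well were plated overnight in Opti-MEM with 2% charcoal-dextran serum. Compounds were applied for 90 min at 37 °C in HBSS/20 mM HEPES pH 7.0/0.1% BSA (0.5% DMSO), followed by Galacton Star substrate for 60 min at RT and a luminescence read. EC50 came from a 4-parameter logistic fit.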

Experiment [2] addresses T1, human GPR119. Briefly: cAMP HTRF functional assay (hGPR119 HEK-CRE beta-lactamase cells). Details: host or cells: HEK293-CRE beta-lactamase. The format is cell-based. The following applies: for pEC50: HTRF cAMP, 30 min, 400 microM IBMX, each line a separate determination; for Intrinsic Activity (Human cAMP) / Emax: percent of maximal activity relative to standard GPR119 agonist at 10 micromolar; for Emax: read-out: Intrinsic Activity (Human cAMP). The method in brief: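 hGPR119 HEK-CRE cells (5000/well), cultured overnight, then treated 30 min at room temperature with compound plus 400 microM IBMX (0.58% DMSO). cAMP measured by competitive HTRF immunoassay after 60 min lysis/detection, converted to nM via standard curve; EC50 from 4-parameter logistic fit.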
(TR-FRET usually uses a lanthanide donor and a delayed reading to cut background.)

The mark [3] stands for this setting: percent of maximal activity relative to standard GPR119 agonist at 10 micromolar.

pEC50: −log10 of the molar value. Where “and” joins values, the source holds several entries; their conditions need not be identical. Equal values may be shown once.

These results are taken from US20100285145A1, “GPR 119 MODULATORS” (PFIZER INC, priority 2009, published 2010).

With `Cc1c(O[C@H]2CCN(C(=O)OC(C)(C)C)C[C@H]2F)ncnc1N1CCc2ncccc21` (racemic) [Example 16, tert-Butyl (3R,4S)-4-{[6-(2,3-dihydro-1H-pyrrolo[3,2-b]pyridin-1-yl)-5-methylpyrimidin-4-yl]oxy}-3-fluoropiperidine-1-carboxylate (racemic)], the pEC50 (in general, the EC50 on a negative log10 scale, so that one unit is a factor of ten) is 8.56 at human GPR119 [1]; 8.20 and 7.82 and 8.03 on human GPR119 [2]. Also, the Emax was found to be 48.6% at human GPR119 [1] (setting [3]) and 24.8% on human GPR119 [2]. Further, the “Intrinsic Activity (Human cAMP)” value on human GPR119 [2] is 21.8% and 27.7%.

As to `Cc1c(O[C@@H]2[C@@H]3COC[C@H]2CN(C(=O)OC(C)C)C3)ncnc1N1CCc2cc(S(C)(=O)=O)ccc21` [Example 23, Isopropyl (9-syn)-9-({5-methyl-6-[5-(methylsulfonyl)-2,3-dihydro-1H-indol-1-yl]pyrimidin-4-yl}oxy)-3-oxa-7-azabicyclo[3.3.1]nonane-7-carboxylate], the Emax at human GPR119 [1] (setting [3]) was found to be 51.6%. For the same compound, on human GPR119 [2], the “Intrinsic Activity (Human cAMP)” value is 27.9% and 29.5% and 16.7%; the Emax is 26.3%.

With `CC(C)OC(=O)N1CCC(Oc2ncnc(N3CCc4cc(S(C)(=O)=O)ccc43)c2C#N)CC1` [Example 6, Isopropyl 4-({5-cyano-6-[5-(methylsulfonyl)-2,3-dihydro-1H-indol-1-yl]pyrimidin-4-yl}oxy)piperidine-1-carboxylate], the pEC50 at human GPR119 [1] is 8.32; at human GPR119 [2], 7.07 and 6.94. Further, the Emax at human GPR119 [1] (setting [3]) worked out at 70%; at human GPR119 [2] it was 95.3%. Besides, at human GPR119 [2], the “Intrinsic Activity (Human cAMP)” value came out at 94.2%.

For the compound `CC(C)(C)OC(=O)N1CCC(Oc2cc(N3CCc4cc(S(C)(=O)=O)ccc43)ncn2)C(F)C1` (racemic) [Example 15, tert-Butyl 3-fluoro-4-({6-[5-(methylsulfonyl)-2,3-dihydro-1H-indol-1-yl]pyrimidin-4-yl}oxy)piperidine-1-carboxylate], the pEC50 on human GPR119 [1] was 9.00. For the same compound, the Emax on human GPR119 [1] (setting [3]) stood at 77.1%. On human GPR119 [2], the negative-log EC50 (pEC50) is 7.99 and 7.89 and 7.31; the “Intrinsic Activity (Human cAMP)” value is 102% and 93.5%; the Emax was 92.5%.

For `CCC1(OC(=O)N2C[C@H]3COC[C@@H](C2)[C@H]3Oc2ncnc(N3CCc4ncccc43)c2C)CC1` [Example 26, 1-Ethylcyclopropyl (9-anti)-9-{[6-(2,3-dihydro-1H-pyrrolo-[3,2-b]pyridin-1-yl)-5-methylpyrimidin-4-yl]oxy}-3-oxa-7-azabicyclo[3.3.1]nonane-7-carboxylate], the pEC50 on human GPR119 [1] is 7.62 and 7.74 and 7.67 and 7.58. On human GPR119 [1] (setting [3]), the Emax came out at 68.6%; the “Intrinsic Activity (Human B-arrestin)” value was 82.5% and 68.9% and 73.4%. For the same compound, at human GPR119 [2], the negative-log EC50 (pEC50) was 7.01 and 6.95 and 7.04 and 6.79; the “Intrinsic Activity (Human cAMP)” value was 65.1% and 67.6% and 43.6% and 50%.
